Biological target: T1, ITK (Mus musculus, UniProt Q03526)
T1 construct: mice were sacrificed and splenocytes were isolated and used to prepare protein lysates; from tissue; host or cells: mouse splenocytes (spleen) after oral dosing
T1 sequence (Q03526 1-625): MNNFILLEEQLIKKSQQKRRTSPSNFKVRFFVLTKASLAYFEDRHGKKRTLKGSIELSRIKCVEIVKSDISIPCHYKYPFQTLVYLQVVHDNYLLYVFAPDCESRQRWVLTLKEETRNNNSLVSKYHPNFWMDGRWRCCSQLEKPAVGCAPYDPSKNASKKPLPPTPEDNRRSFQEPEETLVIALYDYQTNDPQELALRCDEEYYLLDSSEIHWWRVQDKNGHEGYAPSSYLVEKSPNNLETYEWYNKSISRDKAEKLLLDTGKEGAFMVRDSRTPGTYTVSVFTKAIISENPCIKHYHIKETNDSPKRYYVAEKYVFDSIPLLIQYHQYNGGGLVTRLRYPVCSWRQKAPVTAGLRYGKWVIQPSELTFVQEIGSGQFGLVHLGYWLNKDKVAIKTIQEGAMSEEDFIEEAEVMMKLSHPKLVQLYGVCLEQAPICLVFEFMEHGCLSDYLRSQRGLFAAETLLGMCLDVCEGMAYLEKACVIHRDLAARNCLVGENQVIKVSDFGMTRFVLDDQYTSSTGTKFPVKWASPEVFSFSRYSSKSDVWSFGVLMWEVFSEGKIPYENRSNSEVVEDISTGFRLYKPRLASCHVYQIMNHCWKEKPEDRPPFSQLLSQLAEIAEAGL
Assay: Mouse PD assay for ITK degradation (Western blot, splenocytes after oral administration)
Format: in vivo
Conditions: for ITK (%) 90 mpk PO, 6 h: percent ITK remaining in mouse splenocytes relative to vehicle; for ITK degradation in vivo at 6 hours (FIG. 3A, FIG. 4A): mice, oral, splenocytes, Western blot
Procedure, shortened: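 Mice dosed orally, some compounds at 90 mg/kg; splenocytes harvested after 6 hours (some 24 hours). ITK measured by Western blot of equal-protein lysates, normalized to actin. Values are % ITK remaining relative to vehicle-control mean.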

Row | Structure (SMILES) | ITK (%) 90 mpk PO, 6 h [%] | ITK degradation in vivo at 6 hours (FIG. 3A, FIG. 4A)
1 | C[C@@]12Cc3[nH]nc(C(=O)Nc4cnn(CC5CN(C(=O)C6CN(C7CCN(c8ccc9c(c8)C(=O)N(C8CCC(=O)NC8=O)C9=O)CC7)C6)C5)c4)c3C[C@@H]1C2(F)F (stereo partly drawn) [Compound 42, (4aS,5aR)-N-(1-((1-(1-(1-(2-(2,6-dioxopiperidin-3-yl)-1,3-dioxoisoindolin-5-yl)piperidin-4-yl)azetidine-3-carbonyl)azetidin-3-yl)methyl)-1H-pyrazol-4-yl)-5,5-difluoro-5a-methyl-1,4,4a,5,5a,6-hexahydrocyclopropa[f]indazole-3-carboxamide] | 82 | –
2 | C[C@@H](C(=O)N(C)c1ccc2cc(-c3n[nH]c4c3C[C@@H]3C(F)(F)[C@]3(C)C4)[nH]c2c1)N1CCN(C[C@H]2CCN(c3ccc4c(c3)C(=O)N(C3CCC(=O)NC3=O)C4=O)C2)CC1 (stereo partly drawn) [Compound 9, (2S)—N-(2-((4aS,5aR)-5,5-difluoro-5a-methyl-1,4,4a,5,5a,6-hexahydrocyclopropa[f]indazol-3-yl)-1H-indol-6-yl)-2-(4-(((3R)-1-(2-(2,6-dioxopiperidin-3-yl)-1,3-dioxoisoindolin-5-yl)pyrrolidin-3-yl)methyl)piperazin-1-yl)-N-methylpropanamide] | 49.3 | –
3 | CC1(C)CCc2c(-c3cc4ccc(C(=O)N5CCN(CC6CCN(c7ccc(C8CCC(=O)NC8=O)cn7)CC6)CC5)cc4[nH]3)n[nH]c2C1 (centres unmarked) [Compound 47, 3-(6-(4-((4-(2-(6,6-dimethyl-4,5,6,7-tetrahydro-1H-indazol-3-yl)-1H-indole-6-carbonyl)piperazin-1-yl)methyl)piperidin-1-yl)pyridin-3-yl)piperidine-2,6-dione] | 11 | –
4 | C[C@@H](C(=O)N(C)c1ccc2cc(-c3n[nH]c4c3CCC(C)(C)C4)[nH]c2c1)N1CCN(CC2CCN(c3ccc4c(c3)n(C)c(=O)n4C3CCC(=O)NC3=O)CC2)CC1 (stereo partly drawn) [Compound 6, (2S)—N-(2-(6,6-dimethyl-4,5,6,7-tetrahydro-1H-indazol-3-yl)-1H-indol-6-yl)-2-(4-((1-(1-(2,6-dioxopiperidin-3-yl)-3-methyl-2-oxo-2,3-dihydro-1H-benzo[d]imidazol-5-yl)piperidin-4-yl)methyl)piperazin-1-yl)-N-methylpropanamide] | 105 | –
5 | C[C@@H](C(=O)N(C)c1ccc2cc(-c3n[nH]c4c3CCC(C)(C)C4)[nH]c2c1)N1CCN(C[C@H]2CCN(c3ccc4c(c3)n(C)c(=O)n4C3CCC(=O)NC3=O)C2)CC1 (stereo partly drawn) [Compound 5, (2S)—N-(2-(6,6-dimethyl-4,5,6,7-tetrahydro-1H-indazol-3-yl)-1H-indol-6-yl)-2-(4-(((3R)-1-(1-(2,6-dioxopiperidin-3-yl)-3-methyl-2-oxo-2,3-dihydro-1H-benzo[d]imidazol-5-yl)pyrrolidin-3-yl)methyl)piperazin-1-yl)-N-methylpropanamide] | 97 | degraded ITK in vivo
6 | C[C@@H](C(=O)N(C)c1ccc2cc(-c3n[nH]c4c3CCC(C)(C)C4)[nH]c2c1)N1CCN(CC2CCN(c3ccc(C4CCC(=O)NC4=O)cn3)CC2)CC1 (stereo partly drawn) [Compound 10, (2S)—N-(2-(6,6-dimethyl-4,5,6,7-tetrahydro-1H-indazol-3-yl)-1H-indol-6-yl)-2(4-((1-(5-(2,6-dioxopiperidin-3-yl)pyridin-2-yl)piperidin-4-yl)methyl)piperazin-1-yl)-N-methylpropanamide] | 11 | degraded ITK in vivo

— patent publication US20240279202A1 (NURIX THERAPEUTICS, INC., priority 2021, published 2024)
